US20170368015A1, “NOVEL COMPOUND AND ANTIVIRAL AGENT CONTAINING SAME AS ACTIVE INGREDIENT” (NATIONAL UNIVERSITY CORPORATION CHIBA UNIVERSITY, priority 2014, published 2017)

The compounds below were run on RS virus (assay: Evaluation of anti-RS viral activity (MTT assay kit; viable cell count of RS virus-infected Hep2 cells)). Conditions: additive amount 80 μM; Hep2 cells, RS virus 1 MOI, cultured 72 hours; DMSO control = 100.
Type: cell-based, RS virus (human respiratory syncytial virus)
Description: The aforementioned Compound 1 (No. 150) to Compound 22 (No. 306) were measured for anti-RS viral activity according to the protocol of MTT assay kit (CellTiter-Glo (registered trade name) Assay, Promega Corporation).
In a 96-well plate, Hep2 cells were seeded at 1×10^3 cells per well, and each of compounds in the amount shown in Table 7, and RS virus having an infectivity titer of 1 MOI were added, and cultured for 72 hours, and then a viable cell count was determined. As a control, a well containing DMSO at 25 μM (when the additive amount of the compound is 80 μM) or 5 μM (when the additive amount of the compound is 16 μM) in place of a compound was prepared.

Structure (SMILES) | Survival Rate (%)
COC(=O)[C@@H]1N[C@H](c2cccc([C@H]3N[C@@H](C(=O)OC)[C@H](c4ccccc4)[C@H]3[N+](=O)[O-])c2)[C@H]([N+](=O)[O-])[C@H]1c1ccccc1 [Compound 2, dimethyl 5,5′-(1,3-phenylene) (2R, 2′R, 3S, 3′S, 4R, 4′R, 5R, 5′R)-bis(4-nitro-3-phenylpyrrolidine-2-carboxylate)] | 332

Same assay, conditions: human respiratory syncytial virus, HEp-2, 72 h, read-out: Survival Rate (%)

Structure (SMILES) | viability at 80 µM [%] | viability at 16 µM [%]
c1ccc(-c2nnc(-c3ccccc3)o2)cc1 [Compound 21, 2,5-diphenyl-1,3,4-oxadiazole] | 248 | 
COc1ccc(NCCNc2ccc(OC)cc2)cc1 [Compound 6, N1,N2-bis(4-methoxyphenyl)ethane-1,2-diamine] |  | 472

Same assay, conditions: human respiratory syncytial virus, HEp-2; additive amount 16 μM; Hep2 cells, RS virus 1 MOI, cultured 72 hours; DMSO control = 100; read-out: Survival Rate (%)

Structure (SMILES) | viability at 16 µM [%]
O=C1CCCCCC1C(Nc1ccc(OC(F)(F)F)cc1)c1ccccc1 (stereo not drawn) [Compound 16, 2-(phenyl((4-(trifluoromethoxy)phenyl)amino)methyl)cycloheptane-1-one] | 294
CC(C)(C)OC(=O)[C@H]1N[C@H](c2ccccc2)[C@@]2(C(=O)Nc3ccccc32)[C@@H]1c1ccc(Br)cc1 [Compound 12, tert-butyl(2′R,3R,4′S,5′S)-4′-(4-bromophenyl)-2-oxo-2′-phenylspiro[indoline-3,3′-pyrrolidine]-5′-carboxylate] | 475
c1ccc(NCCNc2ccccc2)cc1 [Compound 5, N1,N2-diphenylethane-1,2-diamine] | 471
Cc1ccc2c(c1)[C@](C[N+](=O)[O-])(c1c[nH]c3c(C)cccc13)C(=O)N2C [Compound 10, (S)-1,5-dimethyl-3-(7-methyl-1H-indole-3-yl)-3-(nitromethyl)indoline-2-one] | 294
CCOC(=O)C1=CN2C(=O)CCN2[C@@H]1C1CCCCC1 [Compound 19, ethyl(R)-1-cyclohexyl-5-oxo-6,7-dihydro-1H,5H-pyrazolo[1,2-a]pyrazole-2-carboxylate] | 209
c1ccc(CN2[C@H](c3cccc([C@@H]4N[C@@H](c5ccccc5)[C@H](c5ccccc5)N4Cc4ccccc4)n3)N[C@@H](c3ccccc3)[C@@H]2c2ccccc2)cc1 [Compound 11, 2,6-bis((2R,4S,5S)-1-benzyl-4,5-diphenylimidazolidine-2-yl)pyridine] | 274
Oc1c(Br)cc(Br)cc1/C=N/[C@H](c1ccccc1)[C@@H](c1ccccc1)N1Cc2ccccc2C1 [Compound 15, 2,4-dibromo-6-((E)-(((1R,2R)-2-(isoindoline-2-yl)-1,2-diphenylethyl)imino)methyl)phenol] | 393
O=P12c3ccccc3CN1[C@H](CNc1ccccc1)CCN2c1ccccc1 (stereo partly drawn) [Compound 8, (4S,11R)-1-phenyl-4-((phenylamino)methyl)-1,2,3,4,6-pentahydrobenzo[3,4][1,2]azaphosphoro [1,2-a][1,3,2]diazaphosphinine 11-oxide] | 815
Cc1ccc([C@@H]2[C@@H](C(=O)OC(C)(C)C)N[C@H](c3ccccc3)[C@@]23C(=O)Nc2ccccc23)cc1 [Compound 13, tert-butyl(2′R,3R,4′S,5′S)-2-oxo-2′-phenyl-4′-(p-tolyl)spiro[indoline-3,3′-pyrrolidine]-5′-carboxylate] | 406
C=CCN1C(=O)/C(=C/[N+](=O)[O-])c2ccccc21 [Compound 14, (E)-1-allyl-3-(nitromethylene)indoline-2-one] | 409
Clc1ccc(NCCNc2ccc(Cl)cc2)cc1 [Compound 7, N1,N2-bis(4-chlorophenyl)ethane-1,2-diamine] | 405

Same assay, conditions: human respiratory syncytial virus, HEp-2; additive amount 80 μM; Hep2 cells, RS virus 1 MOI, cultured 72 hours; DMSO control = 100; read-out: Survival Rate (%)

Structure (SMILES) | viability at 80 µM [%]
CCOC(=O)C1=CN2C(=O)CCN2[C@@H]1c1cccc(Cl)c1 [Compound 17, ethyl(R)-1-(3-chlorophenyl)-5-oxo-6,7-dihydro-1H,5H-pyrazolo[1,2-a]pyrazole-2-carboxylate] | 264
N[C@@H](C(=O)O)c1cccc2ccccc12 [Compound 4, (R)-2-amino-2-(naphthalene-1-yl) acetic acid] | 450
CCOC(=O)C1=CN2C(=O)CCN2[C@@H]1c1ccc(OC)cc1 [Compound 18, ethyl(R)-1-(4-methoxyphenyl)-5-oxo-6,7-dihydro-1H,5H-pyrazolo[1,2-a]pyrazole-2-carboxylate] | 349
COC(=O)C1=C(c2ccccc2)C(c2ccccc2)(C(C#N)C#N)C(C(=O)OC)=C1O (stereo not drawn) [Compound 1, dimethyl 5-(dicyanomethyl)-2-hydroxy-4,5-diphenylcyclopenta-1,3-diene-1,3-dic arboxylate] | 359
COC(=O)[C@H]1N[C@@H](c2ccccc2)[C@@H]([N+](=O)[O-])[C@@H]1c1ccccc1 [Compound 20, methyl(2S,3R,4S,5S)-4-nitro-3,5-diphenylpyrrolidine-2-carboxylate] | 344
CCOC(=O)C1=CN2C(=O)CC(C)(C)N2C1c1ccccc1 (stereo not drawn) [Compound 22, ethyl7,7-dimethyl-5-oxo-1-phenyl-6,7-dihydro-1H,5H-pyrazolo[1,2-a]pyrazole-2-carboxyl ate] | 339
CN1C(=O)[C@@](C[N+](=O)[O-])(c2c[nH]c3ccccc23)c2ccccc21 [Compound 9, (S)-3-(1H-indole-3-yl)-1-methyl-3-(nitromethyl)indoline-2-one] | 276
